In general, EC50 refers to the concentration giving half of the maximal effect. What is called IC50 is the point on the concentration scale where inhibition reaches its midpoint. Low values mean higher potency, high ones lower potency.

Several values for one entry are separate records, joined by “and”; a condition that tells them apart may be missing. Equal values may be shown once. Activity calls are given as the source filed them.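 Rule for the calls: active = compounds giving half or more protection of infected cells from virus-caused growth loss, again on retest; inactive = the rest.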

The source of these data is PubChem BioAssay AID179 (DTP/NCI, 2004).

This experiment deals with CEM cells HIV-1 protection, formazan growth assay. The experiment can be described thus: NCI AIDS Antiviral Assay. Particulars: for IC50: measured here: growth of uninfected CEM cells. Put shortly: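 Human CEM cells, uninfected and HIV-1-infected, exposed to five drug concentrations; growth measured by soluble formazan assay and scored as percent protection from infection, with protecting compounds retested.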

In the case of `Cc1cc(NS(=O)(=O)c2ccc(N)cc2)sn1`, the EC50 is above 200 µM and the IC50 was above 200 µM.

Turning to `CC1=C(C(=O)Nc2cc(=O)n(C)c(=O)n2C)C(c2cccc([N+](=O)[O-])c2)C(C(=O)Nc2cc(=O)n(C)c(=O)n2C)=C(C)N1`, the EC50 was above 31.6 µM and the IC50 was above 31.6 µM. For `COc1ccc(C)c2c1N[C@](C)([C@]1(C)Nc3c(OC)ccc(C)c3C1=O)C2=O`, the EC50 is above 100 µM and the concentration for half-maximal inhibition (IC50) was above 100 µM. Turning to `OC(c1ccsc1)c1ccsc1`, the EC50 is above 200 µM and the IC50 is above 200 µM. As for `NC(=O)c1n[nH]n(-c2ccccc2)c1=O`, the EC50 was above 200 µM and the IC50 was above 200 µM.

For the molecule `O=C(c1cc2ccccc2o1)N(Cc1ccccc1)c1ccccc1`, the EC50 is above 79.4 µM and the IC50 is above 79.4 µM. As for `O=C(CCN1CCN(c2cccc(Cl)c2)CC1)N1CCc2c([nH]c3ccccc23)C1c1cccnc1` (configuration not stated), the EC50 is above 10.5 µM and the IC50 is above 10.5 µM. With `O=C1C2=Nc3ccccc3C(O)(C(=O)O)N2c2ccccc21` (configuration not stated), the EC50 was above 200 µM and the IC50 was 16.6 µM. `CCCCCCCCCCCCCCCC(=O)OCC(C[As](=O)(O)O)OC(=O)CCCCCCCCCCCCCCC` (configuration not stated): the EC50 is above 38 µM and the IC50 was above 38 µM. As to `COC(=O)c1c(NC(=O)C(C)C)n[nH]c1NC(=O)C(C)C`, the result was inactive.

For the molecule `CO/N=C(\C([O-])=N\[n+]1cnn(CC(=O)OC(C)(C)C)c1)c1csc(NC(c2ccccc2)(c2ccccc2)c2ccccc2)n1`, the EC50 is above 200 µM and the IC50 was 37.2 µM. Turning to `CCCCc1ccc(-n2sc3ncc([N+](=O)[O-])cc3c2=O)cc1`, the EC50 is above 17 µM and the IC50 was 10 µM. Taken in the same sequence, the figures for `O=C(c1ccccc1)C(O)(Cc1ccccc1)c1ccccc1` (configuration not stated) were above 85.1 µM and 70.8 µM. With `CCCCCCCCOC1N(C2CC(N=[N+]=[N-])C(CO)O2)C(=O)NC(=O)[C@]1(C)Br` (some centres not stated), the EC50 was 0.427 µM and the IC50 amounted to 12.6 µM. Take `CC(Cn1c2c3ccccc3ccc2c2oc(=O)c3ccccc3c21)N(C)C` (configuration not stated): the EC50 is above 3.89 µM and the IC50 was above 3.89 µM. In the case of `COc1cc2c(cc1OC)C(Cl)C(c1cc(OC)c(OC)c(OC)c1)=C2Cl` (configuration not stated), the result was inactive.

For `O=C1C2=C(C(=O)C3=C1C1CCC3C1)C1CCC2C1`, the EC50 is above 200 µM and the IC50 was 5.89 µM.

Regarding `CN(C)CC(CC1=C(CC(CN(C)C)N(C)C)CCC1)N(C)C` (configuration not stated), the result was inactive. For the molecule `O=c1c(-c2c(O)cc(O)c3c2O[C@H](c2ccc(O)cc2)[C@@H](O)C3)c(-c2ccc(O)cc2)oc2cc(O)cc(O)c12`, the EC50 was > 200 µM and 31.6 µM; the IC50 was 75.9 µM and > 100 µM. For the molecule `OC1(c2ccc(-c3ccccc3)cc2)c2ccccc2C2=NCCN21` (configuration not stated), the EC50 is above 200 µM and the IC50 was above 100 µM. Consider `COc1cc2c(cc1OC)CC(=O)c1cc(OC)c(OC)cc1/C=C\2`, for which the EC50 is above 12.6 µM and the IC50 is 7.59 µM.

Take `N#CCCn1c(CCC(=O)Nc2ccc(Cl)cc2Cl)n[nH]c1=S`: the EC50 is 66.1 µM and the IC50 worked out at 97.7 µM.

`COC12C(COC(=O)NCCO)C3=C(C(=O)C(C)=C(N)C3=O)N1CC1NC12` (configuration not stated): the EC50 was above 331 µM and the IC50 was 1.15 µM. Take `CC(=O)C(C(C)=O)C1c2ccccc2-n2nc(-c3ccccc3)c(O)c21` (configuration not stated): the EC50 was above 100 µM and the IC50 is 0.794 µM. `O=C(NCCCCN1CCCCCC1)C1c2ccccc2-c2ccccc21`: the EC50 is above 200 µM and the IC50 was found to be 91.2 µM. In the case of `CC(=O)NC(/C=C\C(=O)O)C(=O)O` (configuration not stated), the EC50 was above 200 µM and the IC50 was above 200 µM. In the case of `CN(C)P(=O)(OP(=O)(N(C)C)N(C)C)N(C)C`, the EC50 is above 200 µM and the IC50 is above 200 µM. Turning to `CCOC(=O)c1[nH]cc(C)c1-c1ccc2c(-c3ccccc3)nc3ccccc3n12`, the EC50 is above 200 µM and the IC50 came out at 3.16 µM.

For the molecule `COC1OC(OCCC#N)C(OCCC#N)C(OCCC#N)C1OCCC#N` (configuration not stated), the EC50 is above 200 µM and the IC50 is above 200 µM. As to `C#CC1(O)CCC2C3CCc4cc(OC)ccc4C3CCC21C` (configuration not stated), the EC50 was above 200 µM and the IC50 amounted to 74.1 µM.

For the molecule `N#Cc1cccc(C2ON=C(c3ccc([N+](=O)[O-])cc3)N2C23CC4CC(CC(C4)C2)C3)c1` (configuration not stated), the EC50 is above 200 µM and the IC50 is above 200 µM. For `CC(C)(C)C1CCC2(CC1)CC(=O)N(N1CCCCCC1)C(=O)C2`, the EC50 is above 200 µM and the IC50 was determined as 55 µM. As for `COCC(C)(COP(=O)(N1CCOCC1)N1CCOCC1)CC(C)COP(=O)(N1CCOCC1)N1CCOCC1` (configuration not stated), the outcome was inactive. Regarding `CCOC(=O)C1SC(=Nc2ccc(Cl)cc2Cl)N=C1C` (configuration not stated), the result was inactive. Turning to `COc1ccc(C(=O)C(c2ccc(OC)cc2)C2(O)C(=O)Nc3c(C)cc(Cl)cc32)cc1` (configuration not stated), the EC50 is above 79.4 µM and the IC50 was above 79.4 µM. On to `Cc1cc2cc(Cl)ccc2nc1C(=O)c1ccccc1`, for which the EC50 was above 2.57 µM and the IC50 is above 2.57 µM.

As to `CC(C)(C)[Si](C)(C)OCC1OC(n2ccc(=O)[nH]c2=O)C(O[Si](C)(C)C(C)(C)C)C1CCN(O)CC1OC(n2ccc(=O)[nH]c2=O)C(O[Si](C)(C)C(C)(C)C)C1O[Si](C)(C)C(C)(C)C` (configuration not stated), the EC50 was above 100 µM and the IC50 is above 100 µM. Turning to `O=c1c(=O)c2cc(O)ccc12`, the EC50 was above 1700 µM and the IC50 was 282 µM. Taken in the same sequence, the figures for `CCOC(=O)C1=NN(c2ccccc2)C2=CC(C)=NN(C)C(=S)N21` were above 200 µM and above 200 µM.

Take `O=C(/C=C1/NC(=O)CS1)Nc1ccccc1`: the EC50 was above 380 µM and the IC50 is 182 µM. For `COP(=O)(OC)c1nc(P(=O)(OC)OC)nc(P(=O)(OC)OC)n1`, the EC50 is above 110 µM and the IC50 was 89.1 µM. For `NC1=NC(=O)[C@H](CSCc2ccccc2)N1C(=O)OCc1ccccc1`, the EC50 is above 200 µM and the IC50 was above 200 µM. As for `C1=Nc2ccc(cc2)-c2ccc(cc2)N=Cc2ccccc2OCc2cccc(n2)COc2ccccc21`, the EC50 is above 200 µM and the IC50 is above 200 µM.

`C=C1OC2OC(C)C(NC(=O)OCC(Cl)(Cl)Cl)C(OC(C)=O)C2O1` (configuration not stated): the EC50 is above 234 µM and the IC50 is above 234 µM. For `O=C1NC(O)c2cc3ccccc3cc2O1` (configuration not stated), the EC50 is above 200 µM and the IC50 was found to be 112 µM. As to `COC(=O)C1(Cc2cccc(C)c2)Cc2c(C)cccc2C1=O` (configuration not stated), the EC50 is above 200 µM and the IC50 came out at 32.4 µM. In the case of `COC(=O)CCCc1ccc2c(c1)CC1(Cc3ccccc3C1)C2`, the EC50 was above 200 µM and the IC50 is above 200 µM.

`Cc1cc([N+](=O)[O-])c2c(c1)P(=O)(O)c1cc(C)cc([N+](=O)[O-])c1O2`: the EC50 is above 200 µM and the IC50 is above 200 µM. Regarding `COc1ccc2nc3ccccc3c(NCCCCN(C)CCCl)c2c1`, the EC50 was above 2 µM and the IC50 came to 0.151 µM. Take `CC(C)/C(Cl)=N/OC(=O)Nc1ccc(F)c(Cl)c1`: the EC50 was above 20 µM and the IC50 was 3.31 µM. For `CC1=CC(=O)C(=C(C)C)CC1`, the EC50 was above 200 µM and the IC50 turned out to be 129 µM. As to `CCCOc1csc([C@H]2CCC3[C@@H]4CC=C5C[C@@H](OC(C)=O)CC[C@]5(C)C4CC[C@@]32C)n1` (some centres not stated), the EC50 is above 55 µM and the IC50 was above 55 µM. Turning to `COC(=O)c1ccc(NCC2=CC(=O)C=CC2=O)cc1`, the EC50 is above 200 µM and the IC50 turned out to be 1 µM. `COc1c(Br)cc(Br)c(OC)c1-c1[nH]c(Br)c(Br)c1Br`: the EC50 is above 16.6 µM and the IC50 is above 16.6 µM. In the case of `Cc1c2ccn(O)cc2c(C)c2c1nc1ccccc12`, the EC50 is above 200 µM and the IC50 came to 1.82 µM. Consider `COC(=O)C1=C(C)N2CCSC2(C)C(C(=O)OC)C1c1cccc(Cl)c1` (configuration not stated), for which the EC50 was above 200 µM and the IC50 is 42.7 µM. `Cc1c(C)[n+](=O)c2ccc(/C=[N+](/[O-])CCO)cc2n1[O-]`: the outcome was inactive. Regarding `COc1cccc(C2NC(=O)N3C(c4cccc(OC)c4)NC(=O)N23)c1` (configuration not stated), the EC50 is above 200 µM and the IC50 stood at 89.1 µM.

On to `COc1onc(C)c1CC(=O)O`, for which the EC50 was above 200 µM and the IC50 was above 200 µM. In the case of `O=C1NC(O)c2cccc([N+](=O)[O-])c2O1` (configuration not stated), the EC50 is above 200 µM and the IC50 is 61.7 µM.

On to `Cc1c([O-])c([O-])c(-c2c([O-])c([O-])c(C)c3c2OCO3)c2c1OCO2.[C-]#[O+].[C-]#[O+].[C-]#[O+].[C-]#[O+].[C-]#[O+].[C-]#[O+].[C-]#[O+].[C-]#[O+].[Re].[Re]`, for which the EC50 is above 174 µM and the IC50 was 93.3 µM.

Consider `COc1cc(OC)cc(-n2c(N)c(-c3nc4ccccc4s3)c3ccc([N+](=O)[O-])cc3c2=O)c1`, for which the EC50 was above 200 µM and the IC50 was 148 µM. On the same counts, the results for `COc1ccc(-c2c(C#N)c(S)n(NS(=O)(=O)c3ccc(C)cc3)c(=O)c2C#N)cc1` are above 200 µM and 9.33 µM. On the same counts, the results for `CCOC(=O)CSc1ccnc(=O)[nH]1` are above 851 µM and above 851 µM. Regarding `CSC(=NCCN=C(NS(=O)(=O)c1ccc(Cl)cc1)SC)NS(=O)(=O)c1ccc(Cl)cc1`, the EC50 was above 200 µM and the IC50 is above 200 µM. Consider `O=c1c2ccc(Br)cc2nc(-c2ccccc2)n1NC1OC(CO)C(O)C(O)C1O` (configuration not stated), for which the result was inactive.

Consider `CC(=O)c1cc2cc3c4c(c2oc1=O)CCCN4CCC3`, for which the EC50 is above 25.7 µM and the IC50 was above 25.7 µM. `O=C(Cc1nc2ccc(C(=O)c3ccccc3)cc2[nH]c1=O)C(=O)Nc1nc2ccccc2[nH]1`: the outcome was inactive. In the case of `Cc1ccc(NC(=O)/C(Cc2cc(=O)oc3cc(O)ccc23)=N\NC(=O)C[N+](C)(C)C)cc1C`, the EC50 is above 186 µM and the IC50 was above 186 µM. With `CC1(C)CNC[C@@](C)(O)C(=O)NC(C)(C)CNC[C@](C)(O)C(=O)N1`, the EC50 was 186 µM and the concentration for half-maximal inhibition (IC50) is above 200 µM.
